These results are taken from paper PMC11762167, “G Protein-Coupled Receptor 17 Inhibits Glucagon-like Peptide-1 Secretion via a Gi/o-Dependent Mechanism in Enteroendocrine Cells” (Biomolecules, 2024).

Starred links: 1 amine or outer side, 2 acyl side, 3 side chain; linkers in the order of their positions; H or OH if unused. Positions of bridges follow the written chain, without caps; N, C: chain ends. Non-standard residues stand in square brackets, D forms with d. Residues, ends and D or L forms follow the SMILES beside them. No end group written: not given here. X1 = CC(=O)NC(C(=O)OC(C(C)C)C(N[*:1])C(=O)[*:2])C(O)C(C)C; PhLac = O=C(O)[CH](O)Cc1ccccc1; NMeT = CN[CH](C(=O)O)[CH](C)O; NMeA = CN[CH](C)C(=O)O; NMeDha = C=C(NC)C(=O)O

The test system of assay [1] is GLUTag cells. The assay is described as follows: GLP-1 secretion from control-transduced or untransduced GLUTag cells. Format: cell-based, murine. The method, then:
(§1) GLUTag cells were maintained in Dulbecco’s Modified Eagle Medium (DMEM) supplemented with 10% fetal bovine serum and 1% penicillin–streptomycin in a humidified incubator at 37 °C and 5% CO2. For adenovirus transduction, GLUTag cells were seeded into poly-D-lysine coated 96-well plates or 4-chamber slides. The next day, cells were transduced with adenoviruses (100–1250 viral particles per cell at time of seeding) as indicated. After 24–30 h, adenovirus-containing media was changed to serum-free growth media for overnight serum starvation. The following day, GLUTag cells were used for cAMP or calcium signaling assays, GLP-1 secretion assays, or immunostaining and imaging.
(§2) GLUTag cells were seeded into poly-D-lysine-coated 96-well plates and transduced with adenovirus as specified above and then tested for GLP-1 secretion. Medium was removed and cells were washed two times with GLP-1 secretion buffer (138 mM NaCl, 4.5 mM KCl, 4.2 mM NaHCO3, 2.5 mM CaCl2, 1.2 mM MgCl2, 10 mM HEPES, 1 mM glucose, and 0.1% bovine serum albumin, pH 7.4). Cells were stimulated for 2 h with indicated treatments diluted in GLP-1 secretion buffer for a total volume of 200 µL/well at 37 °C and 5% CO2. Plates were then centrifuged at 300× g for 1 min at 4 °C, and 75 µL of the supernatant was removed and frozen at −80 °C until subsequent GLP-1 quantification. Total GLP-1 was quantified using the Meso Scale Discovery Total GLP-1 V-PLEX kit (Rockville, MD, USA; K1503PD) according to manufacturer’s instructions. For PTX treatment conditions, cells were pretreated with 100 ng/mL PTX overnight. For experiments with YM-254890, cells were pretreated for 15 min at 37 °C and 5% CO2.

Assay [2] has as its target T1, hGPR17L (Homo sapiens, UniProt Q13304). Briefly: GLP-1 secretion from GLUTag cells expressing hGPR17L. On the set-up: host or cells: GLUTag cells (murine enteroendocrine line), adenoviral transduction. The format is cell-based. How it is done: as §1, §2
The target of assay [3] is T1, hGPR17L. Briefly: Endpoint cAMP (HTRF) in GLUTag cells expressing hGPR17L. The format is cell-based. On the set-up: host or cells: GLUTag cells (murine enteroendocrine line), adenoviral transduction. The following applies: for Predicted (LS) mean diff.: Fig 2B, Forskolin, +Vehicle vs. +100 nM YM-254890. The method, then:
as §1
Endpoint cAMP measurements were conducted as follows. GLUTag cells were seeded into poly-D-lysine-coated 96-well plates and transduced with adenovirus as specified above and then tested for cAMP signaling. Medium was removed and cells were washed with cAMP stimulation buffer (Hanks’ balanced salt solution (HBSS), 20 mM HEPES, pH 7.4) and then incubated in cAMP stimulation buffer for 30 min at 37 °C and 5% CO2. Cells were then treated for 30 min with agonist and forskolin in the presence of 500 µM IBMX at 37 °C and 5% CO2. Stimulation buffer was then decanted, and cAMP lysis buffer (50 mM HEPES, 10 mM CaCl2, 0.35% Triton X-100, and 500 µM IBMX) was added and shaken at 700 rpm for 1 h. Lysate was transferred to a 384-well plate, and the cAMP levels were quantified using the Cisbio HTRF cAMP (Gi kit; Revvity, Waltham, MA, USA) according to the manufacturer’s protocol.

Assay [4] deals with T1, hGPR17L. The assay is described as follows: Calcium flux (Calcium 6) in GLUTag cells expressing hGPR17L. Set-up: host or cells: GLUTag cells (murine enteroendocrine line), adenoviral transduction. Format: cell-based. How it is done: as §1
GLUTag cells were seeded into black, clear bottom, poly-D-lysine-coated 96-well plates. Cells were transduced and serum starved as specified above. Growth medium was then replaced with 100 μL/well assay buffer (HBSS, 20 mM HEPES, pH 7.4) and 100 μL/well Calcium 6 loading dye (R8190; Molecular Devices, San Jose, CA, USA). During dye loading, cells were incubated at 37 °C and 5% CO2 for 2 h. MDL29,951 or KCl was added to the wells and fluorescence (485 nm excitation, 525 nm emission, and 515 nm automatic emission cutoff) was measured using a Molecular Devices FlexStation3 (Molecular Devices) at 37 °C. For experiments with PTX, cells were pretreated with 100 ng/mL PTX overnight and 100 ng/mL PTX was included with Calcium 6 loading dye for calcium flux assays. For experiments with YM-254890, cells were pretreated for 30 min at 37 °C.

T1 sequence (Q13304 whole entry): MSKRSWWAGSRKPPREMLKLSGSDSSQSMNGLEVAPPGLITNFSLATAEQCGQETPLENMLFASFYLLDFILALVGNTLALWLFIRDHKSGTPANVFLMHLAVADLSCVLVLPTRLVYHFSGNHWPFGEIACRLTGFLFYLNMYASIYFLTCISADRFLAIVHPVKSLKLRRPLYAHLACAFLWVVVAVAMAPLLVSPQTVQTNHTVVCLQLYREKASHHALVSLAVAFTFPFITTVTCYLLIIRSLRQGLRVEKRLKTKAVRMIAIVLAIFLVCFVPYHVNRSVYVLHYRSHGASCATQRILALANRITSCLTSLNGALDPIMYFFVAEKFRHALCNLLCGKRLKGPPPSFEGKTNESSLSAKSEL

Regarding “somatostatin (AGCKNFFWKTFTSC; ends and bridges not checked; cysteine pairing not given here; UniProt P61278 103-116, looked up) [SST, Endogenous somatostatin receptor agonist]”, in assay [1] (1 µM SST, control- and hGPR17L-transduced cells (Figure S4A,B)), the “effect on F/I-stimulated GLP-1 secretion” value was “inhibited”.

Regarding `CCCCCCCCCCCCCC(=O)O[C@@H]1[C@@H](C)[C@@]2(O)[C@@H](C=C(CO)C[C@]3(O)C(=O)C(C)=C[C@@H]23)[C@@H]2C(C)(C)[C@]12OC(C)=O` [PMA, phorbol 12-myristate 13-acetate], in assay [1] (300 nM PMA, control transduction condition), the “increase in GLP-1 secretion” value was 4.14 ± 0.18 fold.

Regarding `C=C1C(=O)NC(C)C(=O)N(C)C(C)C(=O)NC(C(OC(=O)C(NC(C)=O)C(O)C(C)C)C(C)C)C(=O)N(C)C(C(C)OC)C(=O)OC(C)C(NC(C)=O)C(=O)OC(Cc2ccccc2)C(=O)N1C` (centres unmarked) [YM-254890] (Ac-T[PhLac][NMeDha]A[NMeA][X1][NMeT](Me); ester 1-C; configuration not given here), the “effect on PMA-stimulated GLP-1 secretion” value in assay [2] (100 nM YM-254890, 300 nM PMA, control or hGPR17L-expressing cells) is “no effect”; in assay [1] (YM-254890 concentration–response, 300 nM PMA) it was “no effect”. In addition, the “effect on MDL29,951-mediated inhibition of PMA-stimulated GLP-1 secretion” value in assay [2] (100 nM YM-254890, 100 µM MDL29,951, 300 nM PMA) is given as “no effect”. Also, the “effect on F/I-stimulated GLP-1 secretion” value is “strong inhibitory effects” in assay [2] (3 µM YM-254890, hGPR17L-expressing cells); “inhibited” in assay [1] (100 nM YM-254890, GLUTag cells); “strong inhibitory effects” in assay [1] (3 µM YM-254890, control cells). For the same compound, the “effect on basal cAMP” value in assay [3] (100 ng/mL PTX or 100 nM YM-254890, control- or hGPR17L-transduced) is given as “no effects”. In addition, the “Predicted (LS) mean diff.” value is on record as 17.41 in assay [3] (log [MDL29,951] (M) -4.0); 19.49 in assay [3] (log [MDL29,951] (M) -4.6); 17.04 in assay [3] (log [MDL29,951] (M) -5.2); 11.34 in assay [3] (log [MDL29,951] (M) -5.8); 5.843 in assay [3] (log [MDL29,951] (M) -6.4); 2.922 in assay [3] (log [MDL29,951] (M) -7.0). Besides, the “Predicted (LS) mean diff.” value in assay [3] (log [MDL29,951] (M) -7.6) is 8.08; in assay [3] (log [MDL29,951] (M) -8.2), 13.01; in assay [3] (log [MDL29,951] (M) -8.8), 10.15; in assay [3] (log [MDL29,951] (M) -9.4), 6.783. Also, the “effect on 15 mM KCl-stimulated calcium mobilization” value in assay [4] (100 ng/mL PTX or 100 nM YM-254890, Figure 2D) is “no effect”. Also, the “concentration giving robust inhibition of MDL29,951-stimulated calcium mobilization” value in assay [4] (1 µM MDL29,951, concentration-response) was ~ 100 nM. Also, the “effect on 15 mM KCl-stimulated calcium flux” value in assay [4] (YM-254890 concentration-response, Figure S5D) was “no effect”.

In the case of `Cc1onc(-c2ccccc2Cl)c1C(=O)N(C)c1ccc(Cl)cc1` [GPBAR-A], the “increase in GLP-1 secretion” value in assay [1] (10 µM GPBAR-A, control transduction condition) was found to be 2.67 ± 0.17 fold.

`CCCCC[C@H](O)/C=C/[C@H]1[C@H](O)CC(=O)[C@@H]1C/C=C\CCCC(=O)O` [PGE2, prostaglandin E2]: the “cAMP levels in response to PGE2 stimulation, % of the control-transduced cells” value in assay [3] (300 nM PGE2, hGPR17L-expressing cells) was 83 ± 5.5%. Further, in assay [1] (300 nM PGE2, control transduction condition), the “increase in GLP-1 secretion” value is 1.90 ± 0.06 fold.

Take `O=C(O)c1ccc(OCCCc2ccc(OCCCCOC3CCCCC3)cc2)c(C(=O)NC2CCCC(C(=O)O)C2)c1` (centres unmarked) [HAMI3379]: the “effect on MDL29,951-mediated inhibition of F/I-stimulated GLP-1 secretion” value in assay [2] (10 µM HAMI3379) is “significantly attenuated”.
